The source of these data is PubChem BioAssay AID200 (DTP/NCI, 2004).

Where “and” joins values, the source holds several entries; their conditions need not be identical. Equal values may be shown once. Toxic doses and inconclusive results are not listed. *1 amine or outer side, *2 acyl side, *3 side chain or, on linkers, in order; H or OH if unused. Where a SMILES comes first, the peptide text is derived from it. Bridges are numbered along the chain shown (N, C = ends). [ ]: non-standard residue; d: D form. The star is where a group is joined. X5 = CC(C)C(C)C(C(=O)[*:2])N(C)[*:1]; Picolinoyl(3-OH) = O=C(c1ncccc1O)*; NMePhg = CN[CH](C(=O)O)c1ccccc1; Hyp = O=C(O)[CH]1C[CH](O)CN1; Sar = CNCC(=O)O

The test system of this test is B6C3F1 mice, B16 melanoma ip, median survival T/C. Briefly: NCI In Vivo Anticancer Drug Screen. Data for tumor model B16 Melanoma (intraperitoneal) in B6C3F1 mice. The settings on record: endpoint: median survival time, schedule: Q01DX009 (ip), higher = longer survival. The method, boiled down: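 Mice bearing transplanted tumor were dosed with compound or vehicle, and survival was recorded. Activity is expressed as the treated-group measurement (T) divided by the vehicle control measurement (C).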

Where [1] appears, read: dose: 25.0 mg/kg/injection, vehicle: distilled water + Tween-80.
Setting [2] is: dose: 12.5 mg/kg/injection, vehicle: suspension in saline.
[3] abbreviates: dose: 50.0 mg/kg/injection, vehicle: suspension in saline.
Where [4] appears, read: dose: 100.0 mg/kg/injection, vehicle: saline.
The mark [5] stands for this setting: dose: 100.0 mg/kg/injection, vehicle: suspension in saline.
Where [6] appears, read: dose: 200.0 mg/kg/injection, vehicle: saline.
[7] abbreviates: dose: 12.5 mg/kg/injection, vehicle: Klucel (hydroxypropylcellulose) (HPC).
[8] abbreviates: dose: 25.0 mg/kg/injection, vehicle: Klucel (hydroxypropylcellulose) (HPC).
Setting [9] is: dose: 50.0 mg/kg/injection, vehicle: Klucel (hydroxypropylcellulose) (HPC).
Where [10] appears, read: dose: 100.0 mg/kg/injection, vehicle: Klucel (hydroxypropylcellulose) (HPC).
[11] abbreviates: dose: 200.0 mg/kg/injection, vehicle: Klucel (hydroxypropylcellulose) (HPC).
[12] abbreviates: dose: 1.56 mg/kg/injection, vehicle: saline with Tween-80.
Where [13] appears, read: dose: 3.12 mg/kg/injection, vehicle: saline with Tween-80.
The mark [14] stands for this setting: dose: 6.25 mg/kg/injection, vehicle: saline with Tween-80.
The mark [15] stands for this setting: dose: 12.5 mg/kg/injection, vehicle: saline with Tween-80.
Setting [16] is: dose: 25.0 mg/kg/injection, vehicle: saline with Tween-80.
The mark [17] stands for this setting: dose: 50.0 mg/kg/injection, vehicle: saline with Tween-80.
[18] abbreviates: dose: 25.0 mg/kg/injection, vehicle: suspension in saline.
[19] abbreviates: dose: 200.0 mg/kg/injection, vehicle: suspension in saline.

For `NC(Cc1ccc(N(CCCl)Cc2ccccc2)cc1)C(=O)O` (stereo not drawn), the T/C (dose: 0.78 mg/kg/injection, vehicle: distilled water + Tween-80) is 99 % of control; the T/C (dose: 1.56 mg/kg/injection, vehicle: distilled water + Tween-80) was 108 % of control; the T/C (dose: 3.12 mg/kg/injection, vehicle: distilled water + Tween-80) was 115 % of control and 100 % of control; the T/C (dose: 6.25 mg/kg/injection, vehicle: distilled water + Tween-80) is 123 % of control and 103 % of control; the T/C (dose: 12.5 mg/kg/injection, vehicle: distilled water + Tween-80) is 110 % of control; the T/C under setting [1] is 118 % of control.
`Cn1nnc2c(C(N)=O)ncn2c1=O`: the T/C under setting [2] is 113 % of control, the T/C under setting [3] is 167 % of control, the T/C under setting [4] is 181 % of control and the T/C under setting [5] is 206 % of control.
As for `OCCO`, the T/C runs as follows: (dose: 0.25 % in 0.5 ml injection vol, vehicle: water) 97 % of control; (dose: 0.5 % in 0.5 ml injection vol, vehicle: water) 96 % of control.
As for `CCOC(=O)C1=C(C)NC(C)=C(C(=O)OCC)C1C`, the T/C is, setting by setting: under setting [4], 94 % of control; under setting [6], 95 % of control; (dose: 400.0 mg/kg/injection, vehicle: saline) 91 % of control.
Regarding `COc1ccc2ccccc2c1C1NC(=O)c2ccccc2N1` (stereo not drawn), the T/C is 96 % of control under setting [7]; 100 % of control under setting [8]; 96 % of control under setting [9]; 100 % of control under setting [10]; 104 % of control under setting [11]; 102 % of control (dose: 400.0 mg/kg/injection, vehicle: Klucel (hydroxypropylcellulose) (HPC)).
Take `O/N=C/c1ccccc1O.O/N=C/c1ccccc1O.[Cu]`: the T/C runs as follows: under setting [12], 94 % of control and 95 % of control; under setting [13], 110 % of control and 86 % of control; under setting [14], 106 % of control; under setting [15], 113 % of control and 88 % of control; under setting [16], 95 % of control; under setting [17], 95 % of control.
Turning to `COc1cc2c(c(OC)c1OC)-c1ccc(OC)c(=O)cc1[C@@H](NC(C)=O)CC2`, the T/C was 108 % of control (dose: 0.02 mg/kg/injection, vehicle: saline); 123 % of control (dose: 0.04 mg/kg/injection, vehicle: saline); 158 % of control (dose: 0.13 mg/kg/injection, vehicle: Klucel (hydroxypropylcellulose) (HPC)); 156 % of control (dose: 0.19 mg/kg/injection, vehicle: saline); 155 % of control (dose: 0.25 mg/kg/injection, vehicle: Klucel (hydroxypropylcellulose) (HPC)); 164 % of control (dose: 0.25 mg/kg/injection, vehicle: saline). In addition, the T/C (dose: 0.37 mg/kg/injection, vehicle: saline) was 167 % of control; the T/C (dose: 0.38 mg/kg/injection, vehicle: saline) is 168 % of control; the T/C (dose: 0.5 mg/kg/injection, vehicle: Klucel (hydroxypropylcellulose) (HPC)) is 173 % of control; the T/C (dose: 0.5 mg/kg/injection, vehicle: saline) is 154 % of control; the T/C (dose: 0.5 mg/kg/injection, vehicle: water) is 157 % of control; the T/C (dose: 1.0 mg/kg/injection, vehicle: saline) was 154 % of control. Further, the T/C runs as follows: (dose: 125.0 micrograms/kg/injection, vehicle: water) 161 % of control; (dose: 250.0 micrograms/kg/injection, vehicle: water) 154 % of control; (dose: 500.0 micrograms/kg/injection, vehicle: water) 155 % of control.
Turning to `Cc1ccc(N=Nc2c(O)ccc3n[nH]nc23)cc1`, the T/C is, setting by setting: under setting [8], 94 % of control; under setting [9], 96 % of control; under setting [10], 114 % of control.
Consider `O=c1[nH]c(=O)n([C@H]2CCCO2)cc1F`, for which the T/C reads like this: under setting [2], 98 % of control; under setting [18], 100 % of control; under setting [3], 112 % of control; under setting [5], 107 % of control; under setting [19], 120 % of control.
With `CC1(C)N=C(N)N=C(N)N1c1ccc(CCCCc2ccc(S(=O)(=O)F)cc2Cl)c(Cl)c1`, the T/C is 100 % of control (dose: 1.56 mg/kg/injection, vehicle: other); 122 % of control under setting [12]; 104 % of control (dose: 3.12 mg/kg/injection, vehicle: other); 109 % of control (dose: 6.25 mg/kg/injection, vehicle: other); 102 % of control (dose: 12.5 mg/kg/injection, vehicle: other); 156 % of control under setting [16].
Consider `CCOC1=Cc2c(oc3c(C(C)(C)C)cc(OCC)cc23)OC(C(C)(C)C)=C1`, for which the T/C was 97 % of control and 107 % of control under setting [12]; 97 % of control and 104 % of control under setting [13]; 102 % of control under setting [14]; 97 % of control and 106 % of control under setting [15]; 113 % of control and 91 % of control under setting [16]; 89 % of control and 101 % of control under setting [17].
Consider `Nc1cccc(=O)[nH]1`, for which the T/C by setting is: under setting [18], 93 % of control; under setting [3], 95 % of control; under setting [5], 94 % of control; under setting [19], 94 % of control; (dose: 400.0 mg/kg/injection, vehicle: suspension in saline) 93 % of control.
In the case of `NC(Cc1ccc(O)c(Cl)c1)C(=O)O` (stereo not drawn), the T/C under setting [4] was 93 % of control and the T/C under setting [6] was 98 % of control.
`NC(CC(=O)CCl)C(=O)O` (stereo not drawn): the T/C by setting is: (dose: 6.25 mg/kg/injection, vehicle: Klucel (hydroxypropylcellulose) (HPC)) 106 % of control; under setting [7], 101 % of control.
In the case of `CS(=O)(=O)OCCN(CCOS(C)(=O)=O)c1ccc(C=O)cc1`, the T/C reads like this: under setting [13], 151 % of control; under setting [14], 162 % of control; under setting [15], 186 % of control.
On to `CCOc1ccc(C(C)c2cc3c(cc2OC)OCO3)cc1` (stereo not drawn), for which the T/C under setting [1] is 123 % of control and the T/C (dose: 50.0 mg/kg/injection, vehicle: distilled water + Tween-80) is 107 % of control.
Consider `CC(C)CC1NC(=O)C(NC(=O)c2ncccc2O)C(C)OC(=O)C(c2ccccc2)N(C)C(=O)C(C)NC(=O)C(C(C)C(C)C)N(C)C(=O)CN(C)C(=O)C2CC(O)CN2C1=O` (stereo not drawn) ({Picolinoyl(3-OH)}-TL[Hyp][Sar][X5]A[NMePhg]; ester 1-C; configuration not given here), for which the T/C under setting [9] is 103 % of control, the T/C under setting [10] was 107 % of control and the T/C under setting [11] was 111 % of control.
Take `O=CC(=O)c1ccc(O)cc1`: the T/C (dose: 6.25 mg/kg/injection, vehicle: saline) is 94 % of control; the T/C (dose: 12.5 mg/kg/injection, vehicle: saline) is 99 % of control; the T/C (dose: 25.0 mg/kg/injection, vehicle: saline) was 108 % of control; the T/C (dose: 50.0 mg/kg/injection, vehicle: saline) is 120 % of control.
